Experimental data published in patent US8304447B2, “2-acylaminopropoanol-type glucosylceramide synthase inhibitors” (Genzyme Corporation, priority 2007, dated 2012).

The molecules below were run on GM3 (assay: GM3 Elisa assay). Details: 48 h, Table 1; B16-FO cells, 2 days incubation; read-out: IC50_uM_Mean.
Format: cell-based
Method: B16-FO cells from ATCC (American Tissue Culture Collection) were grown in DMEM media (ATCC) with 10% Fetal Bovine Serum (Hyclone) and Pen/Step/Glutamine (Biowhittaker). 4000 cells per well were plated on collagen coated plates (BD) and allowed to attach for 6 hours in an incubator (37 degrees, 5% CO2). After 6 hours the compounds and controls were added to the wells, the plates mixed and returned to the incubator for 2 days. Day of assay the cells were fixed for 20 minutes with 1% formaldehyde and then washed with Tris Buffered Saline (TBS) 3 times, 150 μl of TBS was left in the wells and 50 μl of goat serum (Invitrogen) was added, the plates mixed and incubated for 1 hour at room temperature. The plates were flicked and the cells incubated with the monoclonal Antibody to GM3 (NeuAc) (Cosmo) for 45 minutes as room temperature. The plates were then washed 3 times with TBS, leaving 150 μl of TBS in the wells and Peroxidase AffinPure F (ab′) 2 frag Gt Anti-mouse IgM, μ Chain Specific (Jackson Immuno Research) was added in 50 μl, the plates mixed and incubated for 45 minutes at room temperature. The plates were washed 3 times with TBS, flicked and blotted and 100 μl of Quantablu (Pierce) was added to the wells and incubated for 1 hour then read on a Fluorometer at Ex 325 and Em 420. The data was then analyzed using standard programs.

SMILES	IC50
Cc1nc(-c2ccc(NC(=O)N[C@H](CN3CCCC3)[C@H](O)c3ccc4c(c3)OCCO4)cc2)cs1 [Compound 133, 1-((1R,2R)-1-(2,3-dihydrobenzo[β][1,4]dioxin-6-yl)-1-hydroxy-3-(pyrrolidin-1-yl)propan-2-yl)-3-(4-(2-methylthiazol-4-yl)phenyl)urea]	3 to 10 µM
CCc1ccc(OCCC(=O)N[C@H](CN2CCCC2)[C@H](O)c2ccc3c(c2)OCCO3)cc1 [Compound 188, N-((1R,2R)-1-(2,3-dihydrobenzo[b][1,4]dioxin-6-yl)-1-hydroxy-3-(pyrrolidin-1-yl)propan-2-yl)-3-(4-ethylphenoxy)propanamide (2R,3R)-2,3-dihydroxysuccinate]	0.1 to 1 µM
COc1cccc(OCCC(=O)N[C@H](CN2CCCC2)[C@H](O)c2ccc3c(c2)OCCO3)c1 [Compound 54, N-((1R,2R)-1-(2,3-dihydrobenzo[β][1,4]dioxin-6-yl)-1-hydroxy-3-(pyrrolidin-1-yl)propan-2-yl)-3-(3-methoxyphenoxy)propanamide]	≤ 0.1 µM
O=C(Nc1ccc(-c2ccccc2)cc1)N[C@H](CN1CCCC1)[C@H](O)c1ccc2c(c1)OCCO2 [Compound 70, 1-(biphenyl-4-yl)-3-((1R,2R)-1-(2,3-dihydrobenzo[β][1,4]dioxin-6-yl)-1-hydroxy-3-(pyrrolidin-1-yl)propan-2-yl)urea]	≤ 0.1 µM
O=C(CCc1ccc(C(F)(F)F)cc1)N[C@H](CN1CCCC1)[C@H](O)c1ccc2c(c1)OCCO2 [Compound 96, N-((1R,2R)-1-(2,3-dihydrobenzo[β][1,4]dioxin-6-yl)-1-hydroxy-3-(pyrrolidin-1-yl)propan-2-yl)-3-(4-(trifluoromethyl)phenyl)propanamide]	≤ 0.1 µM

Same assay, conditions: 48 h, Table 2; B16-FO cells, 2 days incubation; read-out: IC50_uM_Mean

SMILES	IC50
CCCCCCCC(=O)N[C@H](CN1CCCC1)[C@H](O)CCCCCCC [Compound 311]	1 to 3 µM
COc1ccc(CNC(=O)N(C)[C@H](CN2CCCC2)[C@H](O)c2ccc3c(c2)OCCO3)cc1 [Compound 256]	0.1 to 1 µM

Now from value to molecule:

IC50	SMILES
≤ 0.1 µM	O=C(NCc1ccc(Cl)cc1)N[C@H](CN1CCCC1CN1CCCC1)[C@H](O)c1ccc2c(c1)OCCO2 (stereo partly drawn) [Compound 244]
≤ 0.1 µM	COC(=O)CO[C@H](c1ccc2c(c1)OCCO2)[C@@H](CN1CCCC1)NC(=O)CCOc1ccc(OC)cc1 [Compound 275]
0.1 to 1 µM	COc1ccc(CCCC(=O)N[C@H](CN2CCCC2)[C@H](O)c2ccc(OC)cc2)cc1 [Compound 263]
3 to 10 µM	C[C@@H](NC(=O)N[C@H](CN1CCCC1)[C@H](O)c1ccc2c(c1)OCCO2)c1ccccc1 [Compound 286, 1-((1R,2R)-1-(2,3-dihydrobenzo[β][1,4]dioxin-6-yl)-1-hydroxy-3-(pyrrolidin-1-yl)propan-2-yl)-3-(®-1-phenylethyl)urea]
≤ 0.1 µM	CCCCCCCC(=O)N[C@H](CN1CCCC1)[C@H](O)c1ccc(OC)cc1 [Compound 320, Octanoic acid [2-hydroxy-2(4-methoxy-phenyl)-1-Pyrrolidin1-ylmethyl-ethyl]-amide]
1 to 3 µM	O=C(Cc1csc(-c2cccc(C(F)(F)F)c2)n1)N[C@H](CN1CCCC1)[C@H](OC(=O)Cc1csc(-c2cccc(C(F)(F)F)c2)n1)c1ccc2c(c1)OCCO2 [Compound 255]
≤ 0.1 µM	CCCCCCCCCCCCCCCC(=O)N[C@H](CN1CCCC1)[C@H](O)c1ccc(O)cc1 [Compound 309]
0.1 to 1 µM	O=C(CCCc1nc(-c2ccc(Cl)cc2)no1)N[C@H](CN1CCCC1)[C@H](OC(=O)CCCc1nc(-c2ccc(Cl)cc2)no1)c1ccc2c(c1)OCCO2 [Compound 253]

Same assay, conditions: Table 3 (IC 50 Values); B16-FO cells; read-out: IC50_uM_Mean

SMILES	IC50
COCCOc1ccc(C(=O)CCCCC(=O)N[C@H](CN2CC[C@H](O)C2)[C@H](O)c2ccc(OCCCCF)cc2)cc1 [Compound 455]	≤ 0.1 µM
COc1ccc(C(=O)CCCC(=O)N[C@H](CN2CCCC2)[C@H](O)c2ccc3c(c2)OC(F)(F)O3)cc1 [Compound 405]	1 to 3 µM
O=C(CCCS(=O)(=O)C1CCCCC1)N[C@H](CN1CC[C@@H](F)C1)[C@H](O)c1ccc(OCc2ccccc2)cc1 [Compound 577]	0.1 to 1 µM
COc1ccc(C(=O)CCCCC(=O)N(CC2CCCC2)[C@H](CN2CCCC2)[C@H](O)c2ccc(O)cc2)cc1 [Compound 428]	3 to 10 µM
COc1ccc(C(=O)CCCC(=O)N[C@H](CN2CCCC2)[C@H](O)/C=C/c2ccccc2)cc1 [Compound 393]	3 to 10 µM
CCCCOc1ccc([C@@H](O)[C@@H](CN2CC[C@H](O)C2)NC(=O)CCCCCOC2CCC2)cc1 [Compound 593]	0.1 to 1 µM
CCCCCCCCCCCCCC(=O)N[C@H](CN(C)C(C)C)[C@H](O)c1ccc2c(c1)OCCO2 [Compound 684]	0.1 to 1 µM
COc1ccc(OCCC(=O)N[C@H](CN2CCCC2)[C@H](O)c2ccc(OC)c(C)c2)cc1 [Compound 391]	0.1 to 1 µM
COc1ccc(CCNC(=O)N[C@H](CN2CCCC2)[C@H](O)c2ccc3c(c2)OCCO3)cc1 [Compound 480]	1 to 3 µM
CCCCCCCC(=O)N[C@H](CN1CCCC1)[C@H](O)c1ccc(Cl)cc1 [Compound 385]	1 to 3 µM
CCCCCCCC(=O)N[C@H](CN1[C@H](C)CC[C@H]1C)[C@H](O)c1ccc2c(c1)OCCO2 [Compound 549]	3 to 10 µM
Cc1ccc(OCCC(=O)N[C@H](CN2CC[C@@H](F)C2)[C@H](O)c2ccc(OCCCCF)cc2)cc1 [Compound 739]	≤ 0.1 µM
O=C(CCCCCC(F)(F)C1CC1)N[C@H](CN1CCCC1)[C@H](O)c1ccc2c(c1)OCCO2 [Compound 630]	0.1 to 1 µM
CCCCCCCC(=O)N[C@H](CN1CC[C@H](O)C1)[C@H](O)c1ccc2c(c1)OCCO2 [Compound 515]	≤ 0.1 µM
Cc1ccc([C@@H](O)[C@@H](CN2CCCC2)NC(=O)Cc2ccc(OC(F)(F)F)cc2)cc1F [Compound 347]	0.1 to 1 µM
COc1ccc(C(=O)CCCCCC(=O)N[C@H](CNC2CCC2)[C@H](O)c2ccc3c(c2)OCCO3)cc1 [Compound 460]	1 to 3 µM
CCCCCCCC(=O)N[C@H](CN1CCC[C@@H]1COC)[C@H](O)c1ccc2c(c1)OCCO2 [Compound 540]	3 to 10 µM
CC(C)Oc1ccc([C@@H](O)[C@@H](CN2CCC(F)C2)NC(=O)CCOc2ccc(Cl)cc2)cc1 (stereo partly drawn) [Compound 725]	0.1 to 1 µM
CCCCCCCC(=O)N[C@H](CN1CC[C@H](c2ccccc2)C1)[C@H](O)c1ccc2c(c1)OCCO2 [Compound 506]	3 to 10 µM
O=C(CCOc1ccc(F)cc1)N[C@H](CN1CC[C@@H](F)C1)[C@H](O)c1ccc2c(c1)OCCO2 [Compound 568]	0.1 to 1 µM

More lines, now with the values ahead:

IC50	SMILES
3 to 10 µM	COc1ccc(OCCC(=O)N[C@H](Cn2ccnc2)[C@H](O)c2ccc3c(c2)OCCO3)cc1 [Compound 508]
0.1 to 1 µM	CCCCCCCC(=O)N[C@H](CN1CCCC1)[C@H](O)c1ccc(OC)c(F)c1 [Compound 340]
≤ 0.1 µM	CCCCOc1ccc([C@@H](O)[C@@H](CN2CCCC2)NC(=O)CCOc2ccc(OC)cc2)cc1 [Compound 412]
≤ 0.1 µM	CCCCOc1ccc([C@@H](O)[C@@H](CN2CCCC2)NC(=O)CCCCC(=O)c2ccc(OC)cc2)cc1 [Compound 434]
0.1 to 1 µM	CCCCC(=O)CCCCCCC(=O)N[C@H](CN1CCCC1)[C@H](O)c1ccc2c(c1)OCCO2 [Compound 663]
0.1 to 1 µM	COc1ccc(C(=O)CCCCC(=O)N[C@H](CN2CCCC2)[C@H](O)c2ccc(C)c(F)c2)cc1 [Compound 351]
3 to 10 µM	COc1ccc(OCCC(=O)N(Cc2ccc(-c3noc(C)n3)cc2)[C@H](CN2CCCC2)[C@H](O)c2ccc(O)cc2)cc1 [Compound 720]
0.1 to 1 µM	CC(O)(CCCCCC(=O)N[C@H](CN1CCCC1)[C@H](O)c1ccc2c(c1)OCCO2)C1CC1 (stereo partly drawn) [Compound 629]
≤ 0.1 µM	O=C(CCCCCC(=O)c1ccc(F)cc1)N[C@H](CN1CCCC1)[C@H](O)c1ccc2c(c1)OCCO2 [Compound 628]
3 to 10 µM	CCCCCCCC(=O)N[C@H](CN1CCCC1(C)C)[C@H](O)c1ccc2c(c1)OCCO2 [Compound 553]
3 to 10 µM	COc1ccc(OCCC(=O)N[C@H](CN2CCC(F)(F)CC2)[C@H](O)c2ccc3c(c2)OCCO3)cc1 [Compound 627]
0.1 to 1 µM	COc1ccc(S(=O)(=O)CCCCCC(=O)N[C@H](CN2CCCC2)[C@H](O)c2ccc3c(c2)OCCO3)cc1 [Compound 555]
3 to 10 µM	COc1ccc(C(=O)CCCC(=O)N[C@H](CN2CCCC2)[C@H](O)c2sccc2C)cc1 [Compound 361]
≤ 0.1 µM	COc1ccc(C(=O)CCCCCC(=O)N[C@H](CN2CCCC2)[C@H](O)c2ccc(-c3ccccc3)cc2)cc1 [Compound 693]
1 to 3 µM	CCCCCCCCCCCCCCCC(=O)N[C@H](CNC1CCCC1)[C@H](O)c1ccc2c(c1)OCCO2 [Compound 681]
1 to 3 µM	COc1ccc(C(=O)CCCC(=O)N[C@H](CN2CCCC2)[C@H](O)c2ccccc2OC)cc1 [Compound 701]
≤ 0.1 µM	COc1ccc(C(=O)CCCCC(=O)N[C@H](CN2CCCC2)[C@H](O)c2ccc(OCCCOc3ccc(F)cc3)cc2)cc1 [Compound 431]
≤ 0.1 µM	COc1ccc(C(=O)CCCCC(=O)N[C@H](CN2CCCC2)[C@H](O)c2ccc(OC)c(F)c2)cc1 [Compound 344]
3 to 10 µM	CCCCCCCCCCCCCCCC(=O)N[C@H](CN(C)C1CCCC1)[C@@H](O)c1ccc2c(c1)OCCO2 [Compound 685]
